Laboratory results as given in ChEMBL document CHEMBL1201862, “PubChem BioAssay data set” (2004).
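1) Cells in 96-well plates. 2) Compound, 48 h, 5 concentrations. 3) Linear interpolation between surrounding doses. 4) Unreached endpoint = highest concentration. The concentration for 50% growth inhibition is given as GI50.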 The source made the active and inactive calls. No stated cut-off is given here; in the data, active = GI50 up to about 1.1 µM and inactive = higher.

Key:
Assay in all cases: NCI-60 cell line screen, 48 h
ACHN = system: ACHN
NCI-H226 = system: NCI-H226
HCC 2998 = system: HCC 2998
HOP-62 = system: HOP-62
A549 = system: A549
OVCAR-5 = system: OVCAR-5
KM12 = system: KM12
SF-295 = system: SF-295
SK-OV-3 = system: SK-OV-3
UO-31 = system: UO-31
HOP-92 = system: HOP-92
CCRF-CEM = system: CCRF-CEM
SF-539 = system: SF-539
UACC-257 = system: UACC-257
SNB-75 = system: SNB-75
SR = system: SR

| SMILES | GI50 (ACHN) | GI50 (NCI-H226) | GI50 (HCC 2998) | GI50 (HOP-62) | GI50 (A549) | GI50 (OVCAR-5) | GI50 (KM12) | GI50 (SF-295) | GI50 (SK-OV-3) | GI50 (UO-31) | GI50 (HOP-92) | GI50 (CCRF-CEM) | GI50 (SF-539) | GI50 (UACC-257) | GI50 (SNB-75) | GI50 (SR) |
| --- | --- | --- | --- | --- | --- | --- | --- | --- | --- | --- | --- | --- | --- | --- | --- | --- |
| OCC1OC(c2nc(C3=NCCCN3)cs2)C(O)C1O (stereo not drawn) | > 100 µM (inactive) | > 100 µM (inactive) | > 100 µM (inactive) | > 100 µM (inactive) | > 100 µM (inactive) | > 100 µM (inactive) | > 10 µM (inactive) | > 10 µM (inactive) | > 100 µM (inactive) | > 100 µM (inactive) | > 100 µM (inactive) | > 100 µM (inactive) | > 100 µM (inactive) | > 100 µM (inactive) | – | – |
| COc1ccc(OC)c(NCC#N)c1 | > 100 µM (inactive) | > 100 µM (inactive) | > 100 µM (inactive) | > 100 µM (inactive) | > 100 µM (inactive) | – | > 100 µM (inactive) | > 100 µM (inactive) | > 100 µM (inactive) | > 100 µM (inactive) | > 100 µM (inactive) | > 100 µM (inactive) | > 100 µM (inactive) | > 100 µM (inactive) | > 100 µM (inactive) | – |
| CC(C)CCC[C@@H](C)[C@H]1CC[C@H]2[C@@H]3CC=C4CC(OCCCCN(O)CCCSC5OC(CO)C(O)C(O)C5O)CC[C@]4(C)[C@H]3CC[C@]12C (stereo partly drawn) | > 100 µM (inactive) | – | – | 94.2 µM (inactive) | 42.2 µM (inactive) | > 100 µM (inactive) | 33.5 µM (inactive) | > 100 µM (inactive) | > 100 µM (inactive) | > 100 µM (inactive) | > 100 µM (inactive) | 26.4 µM (inactive) | 18.8 µM (inactive) | > 100 µM (inactive) | 65.8 µM (inactive) | 34.7 µM (inactive) |
| C/C=C(\C)c1cc(O)c(C)c2c1Oc1cc(O)c(Cl)c(C)c1C(=O)O2 | 22.2 µM (inactive) | 18.5 µM (inactive) | 13 µM (inactive) | 27.7 µM (inactive) | 31.6 µM (inactive) | 16.6 µM (inactive) | 20.9 µM (inactive) | 16.7 µM (inactive) | – | 13.5 µM (inactive) | – | – | 20 µM (inactive) | 21.5 µM (inactive) | 19.6 µM (inactive) | 23.8 µM (inactive) |
| CN(C)c1nc(N(C)c2ccccc2)[s+]s1 | > 100 µM (inactive) | 99.8 µM (inactive) | > 100 µM (inactive) | > 100 µM (inactive) | 53.3 µM (inactive) | > 100 µM (inactive) | 36.3 µM (inactive) | 78.3 µM (inactive) | > 100 µM (inactive) | 99.1 µM (inactive) | > 100 µM (inactive) | 35.7 µM (inactive) | 57.9 µM (inactive) | 54.2 µM (inactive) | 83.2 µM (inactive) | – |
| CC(=O)OCCOCNC(=S)N/N=C/c1cc([N+](=O)[O-])ccc1O | > 100 µM (inactive) | > 100 µM (inactive) | 72.1 µM (inactive) | > 100 µM (inactive) | > 100 µM (inactive) | > 100 µM (inactive) | > 100 µM (inactive) | > 100 µM (inactive) | > 100 µM (inactive) | > 100 µM (inactive) | > 100 µM (inactive) | 56.6 µM (inactive) | > 100 µM (inactive) | > 100 µM (inactive) | > 100 µM (inactive) | – |
| CCN1CCC(O)(/C=C/c2ccc(Cl)cc2)C(C(=O)/C=C/c2ccc(Cl)cc2)C1 (stereo not drawn) | 33 µM (inactive) | 20.8 µM (inactive) | 18.4 µM (inactive) | > 100 µM (inactive) | 25.4 µM (inactive) | 30.8 µM (inactive) | 15.2 µM (inactive) | 20.6 µM (inactive) | 23 µM (inactive) | 31.3 µM (inactive) | – | 22.7 µM (inactive) | – | 17.5 µM (inactive) | 33.9 µM (inactive) | 34.5 µM (inactive) |
| C=CCCC12CCCC(=O)C1Sc1ccc3ccccc3c12 (stereo not drawn) | 24.8 µM (inactive) | 14.1 µM (inactive) | 14.1 µM (inactive) | 19.8 µM (inactive) | 10.2 µM (inactive) | 27.5 µM (inactive) | 7.38 µM (inactive) | 19.4 µM (inactive) | 21.1 µM (inactive) | 16.8 µM (inactive) | – | 17.7 µM (inactive) | 15.1 µM (inactive) | 17.1 µM (inactive) | 22.8 µM (inactive) | – |
| C(=N\OCc1ccccc1)/c1ncccc1C1OCCO1 | > 100 µM (inactive) | – | – | > 100 µM (inactive) | > 100 µM (inactive) | > 100 µM (inactive) | > 100 µM (inactive) | > 100 µM (inactive) | > 100 µM (inactive) | > 100 µM (inactive) | > 100 µM (inactive) | > 100 µM (inactive) | > 100 µM (inactive) | > 100 µM (inactive) | > 100 µM (inactive) | > 100 µM (inactive) |
| CC(=O)OCCOCNC(=S)N/N=C/c1ccc2ccccc2n1 | 23 µM (inactive) | > 100 µM (inactive) | 31.7 µM (inactive) | 45.1 µM (inactive) | 33 µM (inactive) | 14.3 µM (inactive) | 55.7 µM (inactive) | 44.6 µM (inactive) | 43.1 µM (inactive) | 31.2 µM (inactive) | – | 54 µM (inactive) | 46.9 µM (inactive) | 48.9 µM (inactive) | 51.3 µM (inactive) | 24.8 µM (inactive) |
| C=CCC1[C@@H](C(C)(C)C(C(C)=O)C(=O)C(=O)OC)OC(C(C)(C)C)N1C(=O)OC (stereo partly drawn) | > 100 µM (inactive) | 52.6 µM (inactive) | > 100 µM (inactive) | > 100 µM (inactive) | > 100 µM (inactive) | 61.5 µM (inactive) | > 100 µM (inactive) | > 100 µM (inactive) | > 100 µM (inactive) | > 100 µM (inactive) | 48.5 µM (inactive) | 49 µM (inactive) | > 100 µM (inactive) | > 100 µM (inactive) | 80.4 µM (inactive) | – |
| COc1cc2c(c(OC)c1OC)-c1ccc(OC)c(=O)cc1[C@@H](N(C)C=O)CC2 | 0.0802 µM (active) | 0.162 µM (active) | 0.0168 µM (active) | < 0.0164 µM (active) | 0.0246 µM (active) | > 8.51 µM (inactive) | < 0.01 µM (active) | 0.0146 µM (active) | – | 0.752 µM (active) | 0.0137 µM (active) | 0.0164 µM (active) | 0.0148 µM (active) | – | < 0.01 µM (active) | – |
| CN(/N=C/c1cccc2cccnc12)c1ccc([N+](=O)[O-])cc1 | > 100 µM (inactive) | > 100 µM (inactive) | > 100 µM (inactive) | > 100 µM (inactive) | 48.1 µM (inactive) | > 100 µM (inactive) | > 100 µM (inactive) | > 100 µM (inactive) | 43.1 µM (inactive) | – | > 100 µM (inactive) | > 100 µM (inactive) | 7.69 µM (inactive) | > 100 µM (inactive) | 21.4 µM (inactive) | – |
| Cl[Si]1(Cl)Oc2ccccc2O[Si](Cl)(Cl)Oc2ccccc2O1 | 15.8 µM (inactive) | 38.5 µM (inactive) | 20.7 µM (inactive) | 26.2 µM (inactive) | 14.3 µM (inactive) | 27.7 µM (inactive) | 34.3 µM (inactive) | 31.3 µM (inactive) | 54.3 µM (inactive) | – | 17.7 µM (inactive) | 1.45 µM (inactive) | 20.3 µM (inactive) | – | 19.9 µM (inactive) | – |
| C=C1CCc2occ(C)c2C2C1C1=C(CC(C)C1=O)C1OC12C (stereo not drawn) | > 100 µM (inactive) | > 100 µM (inactive) | > 100 µM (inactive) | > 100 µM (inactive) | > 100 µM (inactive) | 21.8 µM (inactive) | > 100 µM (inactive) | > 100 µM (inactive) | > 100 µM (inactive) | 4.03 µM (inactive) | > 100 µM (inactive) | > 100 µM (inactive) | > 100 µM (inactive) | > 100 µM (inactive) | 34.7 µM (inactive) | – |
| O=C(CSc1nc(-c2ccccc2)c(-c2ccccc2)[nH]1)N/N=C/c1ccc([N+](=O)[O-])cc1 | 26.7 µM (inactive) | 13.6 µM (inactive) | – | 17.7 µM (inactive) | 29.6 µM (inactive) | – | 17.3 µM (inactive) | 19.8 µM (inactive) | 14.5 µM (inactive) | 14.7 µM (inactive) | 13.8 µM (inactive) | 21.4 µM (inactive) | 16 µM (inactive) | 19 µM (inactive) | 21.8 µM (inactive) | 30.9 µM (inactive) |
| Clc1ccc(SCCSCCCCCCCCCCSCCSc2ccc(Cl)cc2)cc1 | > 100 µM (inactive) | > 100 µM (inactive) | > 100 µM (inactive) | > 100 µM (inactive) | > 100 µM (inactive) | > 100 µM (inactive) | > 100 µM (inactive) | > 100 µM (inactive) | > 100 µM (inactive) | > 100 µM (inactive) | > 100 µM (inactive) | > 100 µM (inactive) | > 100 µM (inactive) | > 100 µM (inactive) | > 100 µM (inactive) | – |
| CC(C)N(C(=O)C12C3C4C5(C#N)C3C1(C#N)C5C42C#N)C(C)C (stereo not drawn) | > 100 µM (inactive) | > 100 µM (inactive) | > 100 µM (inactive) | > 100 µM (inactive) | > 100 µM (inactive) | > 100 µM (inactive) | > 100 µM (inactive) | > 100 µM (inactive) | > 100 µM (inactive) | > 100 µM (inactive) | – | > 100 µM (inactive) | > 100 µM (inactive) | > 100 µM (inactive) | > 100 µM (inactive) | – |
| C[P+]1(c2ccccc2)CCCCC1 | > 100 µM (inactive) | – | > 100 µM (inactive) | > 100 µM (inactive) | > 100 µM (inactive) | > 100 µM (inactive) | > 100 µM (inactive) | > 100 µM (inactive) | > 100 µM (inactive) | > 100 µM (inactive) | – | > 100 µM (inactive) | > 100 µM (inactive) | > 100 µM (inactive) | > 100 µM (inactive) | – |
